Measurements from US10815329B2, “Plasticized thermoset resin, and associated cured resin, method of curing, and article comprising cured resin” (The University of Massachusetts, priority 2016, dated 2020).

What was measured:
[1] = Solubility of crosslinking agent HMTA in methyl benzoate by proton NMR with duroquinone internal standard; type: physicochemical; settings: solvent methyl benzoate
Protocol: For compositional analysis, a Bruker 400 megahertz (MHz) NMR instrument was used. The solubility of crosslinking agent, HMTA, in methyl benzoate was measured by using duroquinone as the internal standard.
The high solubility of HMTA results directly from the plasticized phenol-formaldehyde prepolymer. […] J. P. Patel, et al., J. Polym. Sci. Part B: Polym. Phys., 2015, vol. 53, pp. 1519-1526. […] In this scheme methyl benzoate indirectly increases the interaction between the two reactants, the crosslinking agent HMTA and the phenol-formaldehyde prepolymer.

[2] = solvent furfural; cited from earlier work

solubility of HMTA in methyl benzoate (in words) [1]: virtually insoluble
SMILES: C1N2CN3CN1CN(C2)C3 [HMTA, hexamethylenetetramine]
solubility of HMTA in methyl benzoate ([1]; proton NMR, duroquinone internal standard): no more than 5 milligrams of HMTA per milliliter of methyl benzoate | solubility of HMTA in furfural [2]: less than two
